Assays:
Test in all cases: post-emergence herbicidal activity, greenhouse
Format in all cases: in vivo
[1] = system: Canada Thistle; details: Table II, 11.2 kg/h, formulated immediately prior to treatment
Method in brief: (§1)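 The readout is plant injury compared with untreated pans, taken at two time points, about two and four weeks after spraying. Plants had grown two to three weeks in greenhouse topsoil pans before atomizer treatment.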

[2] = system: Johnsongrass; details: Table II, 11.2 kg/h, formulated immediately prior to treatment
Method in brief: as §1

[3] = system: Pennsylvania Smartweed
Method in brief: as §1

[4] = system: Soybean; details: Table III, 2 WAT
Method in brief: as §1

[5] = system: Large Crabgrass; details: Table III, 2 WAT
Method in brief: as §1

[6] = system: Panicum Spp; details: Table III, 2 WAT
Method in brief: as §1

[7] = system: Cocklebur
Method in brief: as §1

[8] = system: Downy Brome
Method in brief: as §1

[9] = system: Morningglory
Method in brief: as §1

[10] = system: Sugar Beet; details: Table III, 2 WAT
Method in brief: as §1

[11] = system: Velvetleaf
Method in brief: as §1

[12] = system: Quackgrass; details: Table II, 11.2 kg/h, formulated immediately prior to treatment
Method in brief: (§2)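 Injury scores compare treated plants with untreated control pans at roughly 2 and 4 weeks post-spray. Treatment was a single atomizer application, in a solution or suspension with about 0.4% emulsifier by weight, to greenhouse plants aged two to three weeks.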

[13] = system: Yellow Nutsedge; details: Table II, 11.2 kg/h, formulated immediately prior to treatment
Method in brief: as §2

[14] = system: Rice; details: Table III, 2 WAT
Method in brief: as §1

[15] = system: Wild Buckwheat; details: Table III, 2 WAT
Method in brief: as §1

[16] = system: Barnyardgrass
Method in brief: as §1

[17] = system: Common Lambsquarters
Method in brief: as §1

[18] = system: Hemp Sesbania; details: Table III, 2 WAT
Method in brief: as §1

[19] = Table II, 2 WAT, 11.2 kg/h, formulated immediately prior to treatment
[20] = Table II, 4 WAT, 11.2 kg/h, formulated immediately prior to treatment

`CC(C)OC(=O)CNCP(=O)(O[Si](c1ccccc1)(c1ccccc1)C(C)(C)C)O[Si](c1ccccc1)(c1ccccc1)C(C)(C)C` [Ex. 1] was tested, and the “Plant Response Index (A)” value ([1]; 2 WAT) was 0 (0-24% inhibition), the “Plant Response Index (A)” value ([1]; 4 WAT) was 1 (25-49% inhibition) and the “Plant Response Index (I)” value ([2]; 2 WAT) was 0 (0-24% inhibition). For the same molecule, the “Plant Response Index (I)” value ([2]; 4 WAT) was 2 (50-74% inhibition), the “Plant Response Index (F)” value [3, 19] was 3 (75-99% inhibition) and the “Plant Response Index (F)” value [3, 20] was 3 (75-99% inhibition). The “Plant Response Index (F)” value ([3]; Table III, 2 WAT, 1.1 kg/h) was 0 (0-24% inhibition), the “Plant Response Index (F)” value ([3]; Table III, 2 WAT, 5.6 kg/h) was 3 (75-99% inhibition) and the “Plant Response Index (L)” value ([4]; 1.1 kg/h) was 0 (0-24% inhibition). For the same molecule, the “Plant Response Index (L)” value ([4]; 5.6 kg/h) was 1 (25-49% inhibition), the “Plant Response Index (T)” value ([5]; 1.1 kg/h) was 2 (50-74% inhibition) and the “Plant Response Index (T)” value ([5]; 5.6 kg/h) was 4 (100% inhibition). The “Plant Response Index (S)” value ([6]; 1.1 kg/h) was 0 (0-24% inhibition), the “Plant Response Index (S)” value ([6]; 5.6 kg/h) was 3 (75-99% inhibition) and the “Plant Response Index (B)” value [7, 19] was 1 (25-49% inhibition). The “Plant Response Index (B)” value [7, 20] was 1 (25-49% inhibition), the “Plant Response Index (B)” value ([7]; Table III, 2 WAT, 1.1 kg/h) was 0 (0-24% inhibition) and the “Plant Response Index (B)” value ([7]; Table III, 2 WAT, 5.6 kg/h) was 2 (50-74% inhibition). For the same molecule, the “Plant Response Index (J)” value [8, 19] was 1 (25-49% inhibition), the “Plant Response Index (J)” value [8, 20] was 1 (25-49% inhibition) and the “Plant Response Index (J)” value ([8]; Table III, 2 WAT, 1.1 kg/h) was 0 (0-24% inhibition). The “Plant Response Index (J)” value ([8]; Table III, 2 WAT, 5.6 kg/h) was 3 (75-99% inhibition), the “Plant Response Index (D)” value [9, 19] was 1 (25-49% inhibition) and the “Plant Response Index (D)” value [9, 20] was 2 (50-74% inhibition). The “Plant Response Index (D)” value ([9]; Table III, 2 WAT, 1.1 kg/h) was 0 (0-24% inhibition), the “Plant Response Index (D)” value ([9]; Table III, 2 WAT, 5.6 kg/h) was 2 (50-74% inhibition) and the “Plant Response Index (M)” value ([10]; 1.1 kg/h) was 1 (25-49% inhibition). For the same molecule, the “Plant Response Index (M)” value ([10]; 5.6 kg/h) was 3 (75-99% inhibition), the “Plant Response Index (C)” value [11, 19] was 0 (0-24% inhibition) and the “Plant Response Index (C)” value [11, 20] was 1 (25-49% inhibition). For the same molecule, the “Plant Response Index (C)” value ([11]; Table III, 2 WAT, 1.1 kg/h) was 0 (0-24% inhibition), the “Plant Response Index (C)” value ([11]; Table III, 2 WAT, 5.6 kg/h) was 2 (50-74% inhibition) and the “Plant Response Index (H)” value ([12]; 2 WAT) was 0 (0-24% inhibition). The “Plant Response Index (H)” value ([12]; 4 WAT) was 1 (25-49% inhibition), the “Plant Response Index (G)” value ([13]; 2 WAT) was 1 (25-49% inhibition) and the “Plant Response Index (G)” value ([13]; 4 WAT) was 2 (50-74% inhibition). For the same molecule, the “Plant Response Index (O)” value ([14]; 1.1 kg/h) was 0 (0-24% inhibition), the “Plant Response Index (O)” value ([14]; 5.6 kg/h) was 3 (75-99% inhibition) and the “Plant Response Index (Q)” value ([15]; 1.1 kg/h) was 0 (0-24% inhibition). For the same molecule, the “Plant Response Index (Q)” value ([15]; 5.6 kg/h) was 3 (75-99% inhibition), the “Plant Response Index (K)” value [16, 19] was 2 (50-74% inhibition) and the “Plant Response Index (K)” value [16, 20] was 3 (75-99% inhibition). The “Plant Response Index (K)” value ([16]; Table III, 2 WAT, 1.1 kg/h) was 1 (25-49% inhibition), the “Plant Response Index (K)” value ([16]; Table III, 2 WAT, 5.6 kg/h) was 4 (100% inhibition) and the “Plant Response Index (E)” value [17, 19] was 0 (0-24% inhibition). For the same molecule, the “Plant Response Index (E)” value [17, 20] was 0 (0-24% inhibition), the “Plant Response Index (E)” value ([17]; Table III, 2 WAT, 1.1 kg/h) was 0 (0-24% inhibition) and the “Plant Response Index (E)” value ([17]; Table III, 2 WAT, 5.6 kg/h) was 3 (75-99% inhibition). The “Plant Response Index (R)” value ([18]; 1.1 kg/h) was 0 (0-24% inhibition) and the “Plant Response Index (R)” value ([18]; 5.6 kg/h) was 2 (50-74% inhibition).

From patent US4471131A, “Novel silyl esters of N-phosphonomethylglycine” (Monsanto Company, priority 1983, dated 1984)
